Results as given in PubChem BioAssay (NCI).
Several values for one entry are separate records, joined by “and”; a condition that tells them apart may be missing. Identical values can stand only once.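 Briefly, cells in 96-well plates were exposed to five compound concentrations for 48 h, and endpoints were estimated by linear interpolation. The concentration for 50% growth inhibition is given as GI50. Definition used: TGI = concentration required for complete inhibition of growth.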

Test system: NCI-H23 lung
Assay: inhibition of tumour cell growth, NCI panel, 48 h

`COc1cc(Nc2cnc3ccc(C(F)(F)F)cc3n2)cc(OC)c1OC` and `Cc1nc(N)nc(CCC(=O)Nc2cccc(C(F)(F)F)c2)c1-c1ccc(Cl)cc1` cannot be ordered by TGI: over 100 µM for the first, over 100 µM for the second.

First: O=C1NC2=C(CCCCC/C2=N\O)C12CCCCCC2
Second: N#CC1(c2ccc(NC(=O)c3cccnc3NCc3ccncc3)cc2)CCCC1
The TGI of the first is higher: over 100 µM for the first, 41.8 µM for the second.

`CCc1cccc(C)c1NC(=O)CCc1nc(=S)[nH][nH]1` and `CC1(C)N=C(N)N=C(N)N1c1ccc(CCC(=O)Nc2ccc(S(=O)(=O)F)cc2)cc1` cannot be ordered by TGI: over 100 µM for the first, over 100 µM for the second.

`N#C/C(=C\c1cc(OCc2ccccc2)c(OCc2ccccc2)cn1)C(N)=O` and `O=C1NC(=O)c2c1n(Cc1ccccc1)c(=O)n2Cc1ccccc1` cannot be ordered by TGI: over 100 µM for the first, over 100 µM for the second.

First: N#CC(C(=O)C(=O)Nc1c(Cl)cccc1Cl)c1ccccc1 (centres undefined)
Second: O=C1CC(c2ccccc2)Oc2ccccc21 (centres undefined)
The TGI of the first is higher: over 100 µM for the first, 45.5 µM for the second.

First: COc1cc([C@@H]2c3cc4c(cc3[C@@H](NC(=O)c3ccc(C#N)cc3)C3COC(=O)[C@@H]32)OCO4)cc(OC)c1O (some centres undefined)
Second: COc1ccc2c(c1)C(=O)c1c-2c(Nc2ccccc2OC)nc2ccccc12
The TGI of the first is lower: 0.837 µM for the first, over 100 µM for the second.

Compared with `COc1cc2oc(-c3ccc(O)cc3)cc(=O)c2c(O)c1C1OC(CO)C(O)C(O)C1O` (centres undefined), `O=C(OCc1ccc2c(Br)cc(Br)c(O)c2n1)c1cc2ccccc2[nH]1` is lower in TGI: over 100 µM for the first, 3.14 µM for the second.

`Cc1nn(-c2ccc(Cl)cc2)c2ncnc(N/N=C/c3ccccc3O)c12` and `COc1ccc(OC)c(/C=C/c2nc(=S)n(-c3ccc(Cl)cc3)[nH]2)c1` cannot be ordered by TGI: over 55 µM for the first, over 100 µM for the second.

Going from `COc1ccc2c(N)ncc(C#Cc3cc(C(=O)Nc4ccc(CN5CCN(C)CC5)c(C(F)(F)F)c4)cnc3C)c2c1` to `O=C(Nc1cccc(-n2cc(-c3ccncc3)c(-c3cc(O)cc(Cl)c3)n2)c1)c1ccc(N2CCOCC2)c(C(F)(F)F)c1`, the TGI rises from 8.79 µM to 38.8 µM (4.4-fold).

First: COc1cc2c(N3CCN(C(=O)Nc4ccc(OC(C)C)cc4)CC3)ncnc2cc1OCCCN1CCCCC1
Second: O=C1/C(=C/c2ccc(Cl)c(Cl)c2)CN(C(=O)CCN2CCC(=NO)CC2)C/C1=C\c1ccc(Cl)c(Cl)c1
The TGI of the first is 13-fold higher: 39.1 µM for the first, 3.01 µM for the second.

`c1ccc(-c2[nH]ncc2-c2ccnc(-c3ccc(OCCn4ccnc4)cc3)c2)nc1` and `Cn1nccc1Nc1nccc(-c2ccn([C@H](CO)c3ccc(Cl)c(F)c3)c(=O)c2)n1` cannot be ordered by TGI: over 25 µM for the first, over 100 µM for the second.

First: O=C1c2cccc(Oc3ccccc3)c2C(=O)c2cccc(Oc3ccccc3)c21
Second: O=C(/C=C/C12c3ccccc3C(c3ccccc31)C1C(=O)NC(=O)C12)c1ccccn1 (centres undefined)
The TGI of the first is higher: over 100 µM for the first, 4.07 µM for the second.

`CC(C)(CO)CNC(=O)c1ccc2[nH]c(O)c(N=Nc3ccc(S(N)(=O)=O)cc3)c2c1` and `O=C(NC1C(=O)NNC1c1cccc([N+](=O)[O-])c1)c1ccccc1` (centres undefined) cannot be ordered by TGI: over 25 µM for the first, over 100 µM for the second.

Compared with `CCN1C(=S)N(CC)C2C1NC(=S)N2/N=C/C=C/c1ccccc1OC` (centres undefined), `N#CC1c2ccccc2C=CN1C(=O)CCCl` (centres undefined) is lower in TGI: over 100 µM for the first, 40.9 µM for the second.

`CCOC(=O)c1nc(C)oc1C(F)(F)F` and `COc1nc2c(c(O)c(C)c(=O)n2OC2OCC(OC(C)=O)C(OC(C)=O)C2OC(C)=O)c(=O)n1C` (centres undefined) cannot be ordered by TGI: over 100 µM for the first, over 100 µM for the second.

Compared with `O=C1NC(=N[C@@H](CO)c2ccccc2)S/C1=C\c1ccc2ncccc2c1`, `CCNc1nc(O)c(/C=C2\C=Nc3ncccc32)s1` is lower in TGI: over 25 µM for the first, 11.5 µM for the second.

Compared with `N#CC(C(=O)C(=O)Nc1c(Cl)cccc1Cl)c1ccccc1` (centres undefined), `O=C1NC(=N[C@@H](CO)c2ccccc2)S/C1=C\c1ccc2ncccc2c1` is lower in GI50: over 100 µM for the first, 8.92 µM for the second.

Compared with `COc1ccc(OC)c(/C=C/c2nc(=S)n(-c3ccc(Cl)cc3)[nH]2)c1`, `COc1ccc2c(c1)C(=O)c1c-2c(Nc2ccccc2OC)nc2ccccc12` is higher in GI50: 5.88 µM for the first, over 100 µM for the second.

First: COc1ccc2c(N)ncc(C#Cc3cc(C(=O)Nc4ccc(CN5CCN(C)CC5)c(C(F)(F)F)c4)cnc3C)c2c1
Second: O=C(Nc1cccc(-n2cc(-c3ccncc3)c(-c3cc(O)cc(Cl)c3)n2)c1)c1ccc(N2CCOCC2)c(C(F)(F)F)c1
The GI50 of the first is 1.9-fold lower: 1.89 µM for the first, 3.65 µM for the second.

`COc1cc2c(N3CCN(C(=O)Nc4ccc(OC(C)C)cc4)CC3)ncnc2cc1OCCCN1CCCCC1` and `N#CC1(c2ccc(NC(=O)c3cccnc3NCc3ccncc3)cc2)CCCC1` are within 1.5-fold of each other in GI50: 14.6 µM for the first, 12.8 µM for the second.

First: c1ccc(-c2[nH]ncc2-c2ccnc(-c3ccc(OCCn4ccnc4)cc3)c2)nc1
Second: Cn1nccc1Nc1nccc(-c2ccn([C@H](CO)c3ccc(Cl)c(F)c3)c(=O)c2)n1
The GI50 of the first is higher: over 25 µM for the first, 4.47 µM for the second.

First: O=C1c2cccc(Oc3ccccc3)c2C(=O)c2cccc(Oc3ccccc3)c21
Second: O=C(/C=C/C12c3ccccc3C(c3ccccc31)C1C(=O)NC(=O)C12)c1ccccn1 (centres undefined)
The GI50 of the first is higher: over 100 µM for the first, 1.89 µM for the second.

First: O=C(OCc1ccc2c(Br)cc(Br)c(O)c2n1)c1cc2ccccc2[nH]1
Second: CC(C)(CO)CNC(=O)c1ccc2[nH]c(O)c(N=Nc3ccc(S(N)(=O)=O)cc3)c2c1
The GI50 of the first is lower: 1.44 µM for the first, over 25 µM for the second.

First: CC1(C)N=C(N)N=C(N)N1c1ccc(CCC(=O)Nc2ccc(S(=O)(=O)F)cc2)cc1
Second: N#CC1c2ccccc2C=CN1C(=O)CCCl (centres undefined)
The GI50 of the first is 8-fold lower: 2.19 µM for the first, 17.6 µM for the second.

First: CCN1C(=S)N(CC)C2C1NC(=S)N2/N=C/C=C/c1ccccc1OC (centres undefined)
Second: CCNc1nc(O)c(/C=C2\C=Nc3ncccc32)s1
The GI50 of the first is 5.5-fold lower: 0.466 µM for the first, 2.57 µM for the second.

`O=C1/C(=C/c2ccc(Cl)c(Cl)c2)CN(C(=O)CCN2CCC(=NO)CC2)C/C1=C\c1ccc(Cl)c(Cl)c1` showed a GI50 of 1.04 µM.

In the case of `Cc1nn(-c2ccc(Cl)cc2)c2ncnc(N/N=C/c3ccccc3O)c12`, the GI50 is reported as 2.05 µM and 0.721 µM.

`Cc1cc(O)c2c(c1)C(=O)C=CC2=O` was tested, and the TGI was 27.9 µM and 23 µM.

Test system: RXF 393 renal
Assay: inhibition of tumour cell growth, NCI panel, 48 h

`Cc1nc2ccccc2nc1CC(=O)C(=O)Nc1ccc(Cl)cc1Cl` was tested, and the TGI was over 100 µM.
